# Measured values as given in paper PMC9791402, “Yeast 9-1-1 complex acts as a sliding clamp for DNA synthesis by DNA polymerase ε” (The Journal of Biological Chemistry, 2022).
# Target: T1, Polε (WT holoenzyme) (Saccharomyces cerevisiae, UniProt P21951)
# T1 construct: gene POL2; four-subunit holoenzyme, GST tag on Pol2 cut with PreScission protease, gel filtration, expressed in yeast YRP654; with DNA polymerase epsilon subunit B; DNA polymerase epsilon subunit C; DNA polymerase epsilon subunit D
# Assay: gel-based primer extension, […]-labeled primer
# Assay type: biochemical
# Details: 50 μM dCTP running start opposite a run of 5 template G; 5 mM MgCl2, pH 7.5, 30 °C
# T1 sequence (P21951 whole entry): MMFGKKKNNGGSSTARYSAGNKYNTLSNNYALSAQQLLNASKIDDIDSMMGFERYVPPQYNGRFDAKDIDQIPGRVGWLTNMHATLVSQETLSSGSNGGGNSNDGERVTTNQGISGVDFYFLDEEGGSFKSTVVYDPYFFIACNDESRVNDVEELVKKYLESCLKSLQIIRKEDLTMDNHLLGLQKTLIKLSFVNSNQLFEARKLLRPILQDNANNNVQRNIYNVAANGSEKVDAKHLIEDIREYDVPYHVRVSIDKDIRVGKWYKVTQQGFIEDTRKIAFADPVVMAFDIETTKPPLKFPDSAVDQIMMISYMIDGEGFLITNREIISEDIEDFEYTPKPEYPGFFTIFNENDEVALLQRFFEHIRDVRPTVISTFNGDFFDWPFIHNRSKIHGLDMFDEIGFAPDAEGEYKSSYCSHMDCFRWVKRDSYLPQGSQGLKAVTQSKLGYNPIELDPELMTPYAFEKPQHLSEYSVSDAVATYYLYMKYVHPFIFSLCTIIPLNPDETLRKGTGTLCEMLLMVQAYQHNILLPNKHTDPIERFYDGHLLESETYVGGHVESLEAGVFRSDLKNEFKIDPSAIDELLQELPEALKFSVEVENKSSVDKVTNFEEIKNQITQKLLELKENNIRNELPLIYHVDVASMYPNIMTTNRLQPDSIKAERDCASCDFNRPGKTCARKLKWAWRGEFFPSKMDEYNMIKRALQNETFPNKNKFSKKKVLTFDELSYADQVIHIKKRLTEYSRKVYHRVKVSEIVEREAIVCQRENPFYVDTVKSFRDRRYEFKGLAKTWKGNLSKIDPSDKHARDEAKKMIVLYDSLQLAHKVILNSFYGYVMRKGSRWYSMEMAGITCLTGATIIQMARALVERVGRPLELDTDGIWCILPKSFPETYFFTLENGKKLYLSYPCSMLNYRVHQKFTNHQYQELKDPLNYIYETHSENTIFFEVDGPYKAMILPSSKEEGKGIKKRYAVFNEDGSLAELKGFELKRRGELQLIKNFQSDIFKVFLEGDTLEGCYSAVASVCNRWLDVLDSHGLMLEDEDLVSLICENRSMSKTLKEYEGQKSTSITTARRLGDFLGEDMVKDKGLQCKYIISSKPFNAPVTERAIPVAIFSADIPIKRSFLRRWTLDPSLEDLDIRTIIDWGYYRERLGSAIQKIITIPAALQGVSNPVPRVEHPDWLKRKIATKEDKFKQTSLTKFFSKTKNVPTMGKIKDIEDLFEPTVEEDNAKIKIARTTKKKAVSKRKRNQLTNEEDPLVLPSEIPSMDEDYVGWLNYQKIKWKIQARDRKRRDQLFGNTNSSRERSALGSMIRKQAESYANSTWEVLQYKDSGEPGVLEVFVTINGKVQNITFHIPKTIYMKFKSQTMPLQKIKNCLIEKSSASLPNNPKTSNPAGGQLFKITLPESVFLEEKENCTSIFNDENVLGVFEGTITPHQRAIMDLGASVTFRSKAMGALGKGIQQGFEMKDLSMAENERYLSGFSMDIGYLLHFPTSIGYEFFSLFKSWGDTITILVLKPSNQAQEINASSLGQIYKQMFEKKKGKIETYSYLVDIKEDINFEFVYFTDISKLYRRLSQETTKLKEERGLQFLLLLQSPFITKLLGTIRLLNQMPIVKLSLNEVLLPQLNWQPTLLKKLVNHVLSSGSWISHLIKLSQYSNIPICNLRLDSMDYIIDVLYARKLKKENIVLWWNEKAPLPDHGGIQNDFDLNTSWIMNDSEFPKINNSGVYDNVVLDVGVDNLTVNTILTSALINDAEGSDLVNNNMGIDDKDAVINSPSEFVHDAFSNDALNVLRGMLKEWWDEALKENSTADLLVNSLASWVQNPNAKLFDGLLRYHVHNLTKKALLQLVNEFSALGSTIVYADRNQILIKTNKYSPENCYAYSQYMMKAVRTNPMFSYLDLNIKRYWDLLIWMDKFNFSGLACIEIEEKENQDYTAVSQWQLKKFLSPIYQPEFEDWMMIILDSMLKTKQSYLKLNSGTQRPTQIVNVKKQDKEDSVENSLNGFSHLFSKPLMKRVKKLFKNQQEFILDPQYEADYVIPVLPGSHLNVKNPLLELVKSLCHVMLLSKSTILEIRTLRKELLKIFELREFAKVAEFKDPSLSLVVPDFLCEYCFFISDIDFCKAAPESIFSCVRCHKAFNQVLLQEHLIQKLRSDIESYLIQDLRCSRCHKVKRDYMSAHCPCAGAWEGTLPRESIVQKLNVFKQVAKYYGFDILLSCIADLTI
# T1 sequence (P24482 whole entry partner): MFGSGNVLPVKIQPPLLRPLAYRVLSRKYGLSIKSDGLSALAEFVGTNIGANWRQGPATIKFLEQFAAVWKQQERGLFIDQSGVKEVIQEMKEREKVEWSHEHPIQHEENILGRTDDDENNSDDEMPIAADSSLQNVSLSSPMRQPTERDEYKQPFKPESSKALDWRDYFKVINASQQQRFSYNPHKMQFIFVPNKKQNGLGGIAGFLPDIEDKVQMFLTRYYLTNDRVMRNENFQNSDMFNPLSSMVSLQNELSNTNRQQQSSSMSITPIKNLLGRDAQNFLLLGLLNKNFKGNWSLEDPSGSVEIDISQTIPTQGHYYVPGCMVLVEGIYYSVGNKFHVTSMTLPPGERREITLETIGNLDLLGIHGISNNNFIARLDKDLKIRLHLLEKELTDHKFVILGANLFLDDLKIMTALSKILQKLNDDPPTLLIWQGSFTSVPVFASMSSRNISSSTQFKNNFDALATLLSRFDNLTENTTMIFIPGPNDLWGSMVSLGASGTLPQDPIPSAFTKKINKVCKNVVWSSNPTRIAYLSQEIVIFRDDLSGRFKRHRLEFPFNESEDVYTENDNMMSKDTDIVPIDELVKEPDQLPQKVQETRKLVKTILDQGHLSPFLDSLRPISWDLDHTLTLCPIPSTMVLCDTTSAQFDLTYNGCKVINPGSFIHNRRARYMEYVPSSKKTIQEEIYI
# T1 sequence (P27344 whole entry partner): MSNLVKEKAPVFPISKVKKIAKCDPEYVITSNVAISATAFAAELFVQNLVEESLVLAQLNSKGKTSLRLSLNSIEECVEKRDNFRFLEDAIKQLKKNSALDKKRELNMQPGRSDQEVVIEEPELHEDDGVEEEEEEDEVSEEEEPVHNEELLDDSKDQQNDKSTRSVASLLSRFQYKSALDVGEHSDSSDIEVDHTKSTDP
# T1 sequence (Q04603 whole entry partner): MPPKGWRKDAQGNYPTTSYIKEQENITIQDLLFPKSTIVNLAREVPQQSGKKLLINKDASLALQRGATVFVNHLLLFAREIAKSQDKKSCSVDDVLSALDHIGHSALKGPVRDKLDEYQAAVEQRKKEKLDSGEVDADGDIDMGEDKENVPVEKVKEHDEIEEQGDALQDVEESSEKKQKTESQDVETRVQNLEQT
structure (smiles),measurement,value
Nc1ccn([C@H]2C[C@H](O)[C@@H](COP(=O)(O)OP(=O)(O)OP(=O)(O)O)O2)c(=O)n1 [dCTP],"gel-based primer extension, 32P-labeled primer",dCTP was added to initiate DNA synthesis opposite the template G residues
